# Patent US10638755B2, “Antimicrobial compositions” (Symrise AG, priority 2013, dated 2020)
# Read-outs that look alike come from different tables or passages of the source.
# Tests used:
# Aspergillus brasiliensis = assay: Minimum inhibitory concentration (MIC) according to DIN 58940 and Kull Synergy Index; format: cell-based; details: for MIC: Aspergillus brasiliensis
# Pseudomonas aeruginosa = assay: as above; format: cell-based; details: for MIC: Pseudomonas aeruginosa
# Candida albicans = assay: as above; format: cell-based; details: for MIC: Candida albicans
# Staphylococcus aureus = assay: as above; format: cell-based; details: for MIC: Staphylococcus aureus
# Escherichia coli = assay: as above; format: cell-based; details: for MIC: Escherichia coli
# A. brasiliensis = assay: Colony counts in formulation over 28 days and Kull Synergy Index against A. brasiliensis; format: cell-based, Aspergillus brasiliensis
# Text: To calculate the synergism between compounds of formula (I) and other antimicrobial actives, the Kull equation^1 2 was used SI=(Cmixture×PA)/CA+(Cmixture×PB)/CB (I) where • SI is the Synergy Index according to Kull^1), 2) • CA is the cell count for substance A • CB is the cell count for substance B • Cmixture is the cell count for the mixture of substances A and B • PA is the proportion of the substance A in the mixture • PB is the proportion of the substance B in the mixture.
# Colony counts of <100 were arbitrarily set to 100, in order to allow for synergy calculations with the above equation. The abbreviation “n.a.” means not applicable.
# mold = details: moist alfalfa hay; Agronomy Journal 1955; cited from earlier work
# [1] = chemical in vitro assay; constituents of Tagetes mendocina; cited from earlier work
# [2] = tested on: subcuteaneous inflammation; details: administered intraperitoneally; Il Farmaco 2000; cited from earlier work
# [3] = day 0, 1.0% (total) in formulation
# [4] = day 2, 1.0% (total) in formulation
# [5] = day 7, 1.0% (total) in formulation
# [6] = day 14, 1.0% (total) in formulation
# [7] = day 28, 1.0% (total) in formulation
smiles,measurement,setting,value
OCC(O)COCc1ccccc1 (stereo not drawn) [Benzylglycerin],MIC values Aspergillus brasiliensis,Aspergillus brasiliensis; DIN 58940,20000 ppm
same,MIC values Pseudomonas aeruginosa,Pseudomonas aeruginosa; DIN 58940,20000 ppm
same,MIC values Candida albicans,Candida albicans; DIN 58940,20000 ppm
same,MIC values Staphylococcus aureus,Staphylococcus aureus; DIN 58940,20000 ppm
same,MIC values Escherichia coli,Escherichia coli; DIN 58940,10000 ppm
"CCCCC(CC)COCC(O)CO (stereo not drawn) [EHG, ethylhexyl glycerin]",MIC values Aspergillus brasiliensis,Aspergillus brasiliensis,2000 ppm
same,MIC values Pseudomonas aeruginosa,Pseudomonas aeruginosa,>20000 ppm
same,Colony counts,A. brasiliensis; [3],315.000 cfu/g formulation
same,Relative colony counts,A. brasiliensis; [3],0.5048
same,Colony counts,A. brasiliensis; [4],159.000 cfu/g formulation
same,Relative colony counts,A. brasiliensis; [4],0.4762
same,Colony counts,A. brasiliensis; [5],150.000 cfu/g formulation
same,Relative colony counts,A. brasiliensis; [5],0.9635
same,Colony counts,A. brasiliensis; [6],304.000 cfu/g formulation
same,Relative colony counts,A. brasiliensis; [6],0.9635
same,Colony counts,A. brasiliensis; [7],304.000 cfu/g formulation
same,Relative colony counts,A. brasiliensis; [7],0.5048
same,MIC values Candida albicans,Candida albicans,2000 ppm
same,MIC values Staphylococcus aureus,Staphylococcus aureus,2000 ppm
same,MIC values Escherichia coli,Escherichia coli,2500 ppm
"OCCCO [1,3-Propanediol]",MIC values Aspergillus brasiliensis,Aspergillus brasiliensis; DIN 58940,150000 ppm
same,MIC values Pseudomonas aeruginosa,Pseudomonas aeruginosa; DIN 58940,100000 ppm
same,MIC values Candida albicans,Candida albicans; DIN 58940,100000 ppm
same,MIC values Staphylococcus aureus,Staphylococcus aureus; DIN 58940,125000 ppm
same,MIC values Escherichia coli,Escherichia coli; DIN 58940,100000 ppm
CCCCCCCOCC(O)CO (stereo not drawn) [Heptylglycerin],MIC values Aspergillus brasiliensis,Aspergillus brasiliensis; DIN 58940,1000 ppm
same,MIC values Pseudomonas aeruginosa,Pseudomonas aeruginosa; DIN 58940,5000 ppm
same,MIC values Candida albicans,Candida albicans; DIN 58940,2000 ppm
same,MIC values Staphylococcus aureus,Staphylococcus aureus; DIN 58940,2500 ppm
same,MIC values Escherichia coli,Escherichia coli; DIN 58940,2000 ppm
"CCCCCCCOCC(O)CO (stereo not drawn) [3HOPD, 3-heptyloxy-1,2-propanediol]",Colony counts,A. brasiliensis; [3],220.000 cfu/g formulation
same,Relative colony counts,A. brasiliensis; [3],1.0000
same,Colony counts,A. brasiliensis; [4],320.000 cfu/g formulation
same,Relative colony counts,A. brasiliensis; [4],1.4545
same,Colony counts,A. brasiliensis; [5],340.000 cfu/g formulation
same,Relative colony counts,A. brasiliensis; [5],1.5455
same,Colony counts,A. brasiliensis; [6],300.000 cfu/g formulation
same,Relative colony counts,A. brasiliensis; [6],1.3636
same,Colony counts,A. brasiliensis; [7],170.000 cfu/g formulation
same,Relative colony counts,A. brasiliensis; [7],0.7727
CCCCCCOC[C@@H](O)CO [Hexylglycerin],MIC values Aspergillus brasiliensis,Aspergillus brasiliensis; DIN 58940,4000 ppm
same,MIC values Pseudomonas aeruginosa,Pseudomonas aeruginosa; DIN 58940,6000 ppm
same,MIC values Candida albicans,Candida albicans; DIN 58940,6000 ppm
same,MIC values Staphylococcus aureus,Staphylococcus aureus; DIN 58940,6000 ppm
same,MIC values Escherichia coli,Escherichia coli; DIN 58940,4000 ppm
"CCCCC(O)CO (stereo not drawn) [HD, 1,2-Hexanediol]",MIC,Aspergillus brasiliensis; DIN 58940,10000 µg/mL
same,MIC,Pseudomonas aeruginosa; DIN 58940,10000 µg/mL
same,Colony counts,"A. brasiliensis; day 0, 3.0% in formulation",305.000 cfu/g formulation
same,Relative colony counts,"A. brasiliensis; day 0, 3.0% in formulation",1.0000
same,Colony counts,"A. brasiliensis; day 2, 3.0% in formulation",306.000 cfu/g formulation
same,Relative colony counts,"A. brasiliensis; day 2, 3.0% in formulation",1.0033
same,Colony counts,"A. brasiliensis; day 7, 3.0% in formulation",266.000 cfu/g formulation
same,Relative colony counts,"A. brasiliensis; day 7, 3.0% in formulation",0.8721
same,Colony counts,"A. brasiliensis; day 14, 3.0% in formulation",96.000 cfu/g formulation
same,Relative colony counts,"A. brasiliensis; day 14, 3.0% in formulation",0.3148
same,Colony counts,"A. brasiliensis; day 28, 3.0% in formulation",<100 cfu/g formulation
same,Relative colony counts,"A. brasiliensis; day 28, 3.0% in formulation",0.0003
same,MIC,Candida albicans; DIN 58940,20000 µg/mL
same,MIC,Staphylococcus aureus; DIN 58940,20000 µg/mL
same,MIC,Escherichia coli; DIN 58940,10000 µg/mL
"CCCCCCC(O)CO (stereo not drawn) [1,2-Octanediol]",MIC,Aspergillus brasiliensis; DIN 58940,1000 µg/mL
same,MIC,Pseudomonas aeruginosa; DIN 58940,5000 µg/mL
same,MIC,Candida albicans; DIN 58940,5000 µg/mL
same,MIC,Staphylococcus aureus; DIN 58940,5000 µg/mL
same,MIC,Escherichia coli; DIN 58940,2500 µg/mL
OCCCc1ccccc1 [3-Phenylpropanol],MIC,Aspergillus brasiliensis; DIN 58940,2000 µg/mL
same,MIC,Pseudomonas aeruginosa; DIN 58940,2000 µg/mL
same,MIC,Candida albicans; DIN 58940,5000 µg/mL
same,MIC,Staphylococcus aureus; DIN 58940,2000 µg/mL
same,MIC,Escherichia coli; DIN 58940,2000 µg/mL
CCCCCCCCOCC(O)CO (stereo not drawn) [Octylglycerin],MIC values Aspergillus brasiliensis,Aspergillus brasiliensis; DIN 58940,500 ppm
same,MIC values Pseudomonas aeruginosa,Pseudomonas aeruginosa; DIN 58940,>2000 ppm
same,MIC values Candida albicans,Candida albicans; DIN 58940,1000 ppm
same,MIC values Staphylococcus aureus,Staphylococcus aureus; DIN 58940,1000 ppm
same,MIC values Escherichia coli,Escherichia coli; DIN 58940,1000 ppm
"CC(=O)c1ccc(O)cc1 [4HAP, 4-hydroxyacetophenone]",prevention of mold growth,mold,not prevent mold growth
same,MIC,Aspergillus brasiliensis; DIN 58940,4000 µg/mL
same,MIC,Pseudomonas aeruginosa; DIN 58940,4000 µg/mL
same,antioxidant activity,[1],one of the active constituents
same,Colony counts,A. brasiliensis; [3],300.000 cfu/g formulation
same,Relative colony counts,A. brasiliensis; [3],1.0000
same,Colony counts,A. brasiliensis; [4],56.000 cfu/g formulation
same,Relative colony counts,A. brasiliensis; [4],0.1867
same,Colony counts,A. brasiliensis; [5],1.900 cfu/g formulation
same,Relative colony counts,A. brasiliensis; [5],0.0063
same,Colony counts,A. brasiliensis; [6],1.900 cfu/g formulation
same,Relative colony counts,A. brasiliensis; [6],0.0063
same,Colony counts,A. brasiliensis; [7],<100 cfu/g formulation
same,Relative colony counts,A. brasiliensis; [7],0.0003
same,MIC,Candida albicans; DIN 58940,6000 µg/mL
same,MIC,Staphylococcus aureus; DIN 58940,6000 µg/mL
same,anti-inflammatory activity,[2],reducing subcuteaneous inflammation
same,MIC,Escherichia coli; DIN 58940,4000 µg/mL
